biological target: T1, glucosylceramide synthase (Homo sapiens, UniProt Q16739); test: Glucosylceramide synthase (GCS) enzyme assay, microsome fraction, C8 glucosylceramide quantified by Rapidfire MS/MS; type: biochemical; conditions: test compound 10 μM; 1.7 μM UDP-glucose, 3 μM C8 ceramide; room temperature 60 min; read-out: GCS enzyme inhibitory rate at 10 μM (%) (% of control)
T1 construct: made in house; host or cells: Expi293F cells (transient expression, pcDNA3.3-TOPO vector); microsome fraction used as enzyme source
T1 sequence (Q16739 1-394): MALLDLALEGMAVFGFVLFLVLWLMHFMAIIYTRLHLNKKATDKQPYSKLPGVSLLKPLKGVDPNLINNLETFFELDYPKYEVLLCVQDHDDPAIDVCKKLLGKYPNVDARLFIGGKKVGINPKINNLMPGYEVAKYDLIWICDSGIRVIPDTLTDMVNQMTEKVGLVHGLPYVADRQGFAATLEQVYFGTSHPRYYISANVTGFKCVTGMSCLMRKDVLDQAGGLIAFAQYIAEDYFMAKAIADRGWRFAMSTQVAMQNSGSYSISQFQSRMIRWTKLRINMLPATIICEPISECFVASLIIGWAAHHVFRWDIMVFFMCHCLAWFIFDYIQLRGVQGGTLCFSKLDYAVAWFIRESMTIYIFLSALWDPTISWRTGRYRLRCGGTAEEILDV
How it was run: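 Test compound, 10 μM final, was run against human GCS from transfected Expi293F microsome fractions, using substrate solution of 6 μM C8 ceramide (in DOPC liposomes) plus 3.4 μM UDP-glucose, pH 7.5 Tris buffer, 60 min, room temperature. Product C8 glucosylceramide measured by Rapidfire MS/MS against an internal standard, % inhibition referenced to no-enzyme and DMSO wells.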

Compound | inhibition at 10 µM [%]
O=C1c2ccnc(-c3ccccc3OC(F)F)c2CN1c1ccc(C(F)(F)F)cn1 [Example 67, 4-[2-(difluoromethoxy)phenyl]-2-[5-(trifluoromethyl)pyridin-2-yl]-2,3-dihydro-1H-pyrrolo[3,4-c]pyridin-1-one] | 95
N#Cc1ccc(N2Cc3c(ccnc3-c3ccccc3OCC(F)(F)F)C2=O)cc1 [Example 68, 4-{1-oxo-4-[2-(2,2,2-trifluoroethoxy)phenyl]-1,3-dihydro-2H-pyrrolo[3,4-c]pyridin-2-yl}benzonitrile] | 87
N#Cc1ccc(N2Cc3c(ccnc3-c3ccc(F)cc3OC(F)F)C2=O)nc1 [Example 70, 6-{4-[2-(difluoromethoxy)-4-fluorophenyl]-1-oxo-1,3-dihydro-2H-pyrrolo[3,4-c]pyridin-2-yl}pyridine-3-carbonitrile] | 53
N#Cc1ccc(N2Cc3c(ccnc3-c3ccc(F)cc3OCC(F)(F)F)C2=O)nc1 [Example 71, 6-{4-[4-fluoro-2-(2,2,2-trifluoroethoxy)phenyl]-1-oxo-1,3-dihydro-2H-pyrrolo[3,4-c]pyridin-2-yl}pyridine-3-carbonitrile] | 99
N#Cc1ccc(N2Cc3c(ccnc3-c3ccccc3OCC(F)(F)F)C2=O)nc1 [Example 72, 6-{1-oxo-4-[2-(2,2,2-trifluoroethoxy)phenyl]-1,3-dihydro-2H-pyrrolo[3,4-c]pyridin-2-yl}pyridine-3-carbonitrile] | 100
N#Cc1ccc(N2Cc3c(ccnc3-c3ccccc3OC(F)F)C2=O)nc1 [Example 73, 6-{4-[2-(difluoromethoxy)phenyl]-1-oxo-1,3-dihydro-2H-pyrrolo[3,4-c]pyridin-2-yl}pyridine-3-carbonitrile] | 90
O=C1c2ccnc(-c3ccccc3OC(F)F)c2CN1c1ccc(OC(F)F)nc1 [Example 74, 4-[2-(difluoromethoxy)phenyl]-2-[6-(difluoromethoxy)pyridin-3-yl]-2,3-dihydro-1H-pyrrolo[3,4-c]pyridin-1-one] | 91
O=C1c2ccnc(-c3ccccc3OCC(F)(F)F)c2CN1c1ccc(OC(F)F)nc1 [Example 75, 2-[6-(difluoromethoxy)pyridin-3-yl]-4-[2-(2,2,2-trifluoroethoxy)phenyl]-2,3-dihydro-1H-pyrrolo[3,4-c]pyridin-1-one] | 100
O=C1c2ccnc(-c3ccncc3OCC(F)(F)F)c2CN1c1ccc(F)cc1 [Example 77, 2-(4-fluorophenyl)-4-[3-(2,2,2-trifluoroethoxy)pyridin-4-yl]-2,3-dihydro-1H-pyrrolo[3,4-c]pyridin-1-one] | 91
O=C(c1ccc(-c2nccc3c2CN(c2ccc(F)cc2)C3=O)c(OC(F)F)c1)N1CCC1 [Example 78, 4-[4-(azetidine-1-carbonyl)-2-(difluoromethoxy)phenyl]-2-(4-fluorophenyl)-2,3-dihydro-1H-pyrrolo[3,4-c]pyridin-1-one] | 79
O=C1c2cnn(-c3ccc(F)cc3OCC(F)(F)F)c2CN1c1ccc(F)cc1 [Example 79, 5-(4-fluorophenyl)-1-[4-fluoro-2-(2,2,2-trifluoroethoxy)phenyl]-5,6-dihydropyrrolo[3,4-c]pyrazol-4(1H)-one] | 75
COc1cc(F)ccc1-c1cncc2c1CN(c1ccc(F)cc1)C2=O [Example 80, 7-(4-fluoro-2-methoxyphenyl)-2-(4-fluorophenyl)-1,2-dihydro-3H-pyrrolo [3,4-c]pyridin-3-one] | 72
Cn1cc(N2Cc3c(ccnc3-c3ccc(F)cc3OCC(F)(F)F)C2=O)cn1 [Example 81, 4-[4-fluoro-2-(2,2,2-trifluoroethoxy)phenyl]-2-(1-methyl-1H-pyrazol-4-yl)-2,3-dihydro-1H-pyrrolo[3,4-c]pyridin-1-one] | 86
Cc1cc(N2Cc3c(ccnc3-c3ccc(F)cc3OCC(F)(F)F)C2=O)nn1C [Example 82, 2-(1,5-dimethyl-1H-pyrazol-3-yl)-4-[4-fluoro-2-(2,2,2-trifluoroethoxy)phenyl]-2,3-dihydro-1H-pyrrolo[3,4-c]pyridin-1-one] | 88
O=C1c2ccnc(-c3ccc(F)cc3OCC(F)(F)F)c2CN1c1cnn(CC(F)(F)F)c1 [Example 83, 4-[4-fluoro-2-(2,2,2-trifluoroethoxy)phenyl]-2-[1-(2,2,2-trifluoroethyl)-1H-pyrazol-4-yl]-2,3-dihydro-1H-pyrrolo[3,4-c]pyridin-1-one] | 91
O=C1c2cncc(-c3ccccc3OCC(F)(F)F)c2CN1c1ccc(F)cc1 [Example 87, 2-(4-fluorophenyl)-7-[2-(2,2,2-trifluoroethoxy)phenyl]-1,2-dihydro-3H-pyrrolo[3,4-c]pyridin-3-one] | 86
CS(=O)(=O)c1ccc(N2Cc3c(ccnc3-c3ccc(F)cc3OCC(F)(F)F)C2=O)cc1 [Example 88, 4-[4-fluoro-2-(2,2,2-trifluoroethoxy)phenyl]-2-[4-(methanesulfonyl)phenyl]-2,3-dihydro-1H-pyrrolo[3,4-c]pyridin-1-one] | 89
Cc1ccc(N2Cc3c(ccnc3-c3ccc(F)cc3OCC(F)(F)F)C2=O)cn1 [Example 89, 4-[4-fluoro-2-(2,2,2-trifluoroethoxy)phenyl]-2-(6-methylpyridin-3-yl)-2,3-dihydro-1H-pyrrolo[3,4-c]pyridin-1-one] | 96
O=C1c2ccnc(-c3ccc(F)cc3OCC(F)(F)F)c2CN1c1ccc(OC(F)F)nn1 [Example 90, 2-[6-(difluoromethoxy)pyridazin-3-yl]-4-[4-fluoro-2-(2,2,2-trifluoroethoxy)phenyl]-2,3-dihydro-1H-pyrrolo[3,4-c]pyridin-1-one] | 85
O=C1c2ccnc(-c3ccncc3OCC(F)(F)F)c2CN1c1ccc(OC(F)F)cn1 [Example 91, 2-[5-(difluoromethoxy)pyridin-2-yl]-4-[3-(2,2,2-trifluoroethoxy)pyridin-4-yl]-2,3-dihydro-1H-pyrrolo[3,4-c]pyridin-1-one] | 99
Cc1nn(-c2ccc(F)cc2OCC(F)(F)F)c2c1C(=O)N(c1ccc(F)cc1)C2 [Example 92, 5-(4-fluorophenyl)-1-[4-fluoro-2-(2,2,2-trifluoroethoxy)phenyl]-3-methyl-5,6-dihydropyrrolo[3,4-c]pyrazol-4(1H)-one] | 57
O=C1c2ccnc(-c3ccc(F)cc3OCC(F)(F)F)c2CN1c1cnn(CC(F)F)c1 [Example 93, 2-[1-(2,2-difluoroethyl)-1H-pyrazol-4-yl]-4-[4-fluoro-2-(2,2,2-trifluoroethoxy)phenyl]-2,3-dihydro-1H-pyrrolo[3,4-c]pyridin-1-one] | 95
O=C1c2ccnc(-c3ccc(F)cc3OCC(F)(F)F)c2CN1c1cnn(C2CC2)c1 [Example 94, 2-(1-cyclopropyl-1H-pyrazol-4-yl)-4-[4-fluoro-2-(2,2,2-trifluoroethoxy)phenyl]-2,3-dihydro-1H-pyrrolo[3,4-c]pyridin-1-one] | 97
CC(C)Cn1cc(N2Cc3c(ccnc3-c3ccc(F)cc3OCC(F)(F)F)C2=O)cn1 [Example 96, 4-[4-fluoro-2-(2,2,2-trifluoroethoxy)phenyl]-2-[1-(2-methylpropyl)-1H-pyrazol-4-yl]-2,3-dihydro-1H-pyrrolo[3,4-c]pyridin-1-one] | 99

— patent US12528802B2, “Heterocyclic compound” (Takeda Pharmaceutical Company Limited, priority 2019, dated 2026)
